“And” between values parts separate entries of the source, which are not always exact repeats. Identical values can stand only once. ± gives the expanded uncertainty stated by the source.
Columns and labels:
[1] = for mass density / viscosity / speed of sound: Liquid
[2] = refractive index (Na D-line) (dimensionless); conditions: 101.33 kPa, Liquid
[3] = xn = mol fraction of the nth substance listed; conditions: x2 = 0; for mass density / speed of sound / viscosity: 101 kPa, Liquid
[4] = refractive index (Na D-line) (dimensionless); xn = mol fraction of the nth substance listed; conditions: 101 kPa, Liquid, x2 = 0

SMILES	surface tension liquid-gas ([1]; 303.15 K) [mN/m]	mass density ([1]; 303.15 K, 101 kPa) [kg/m3]	speed of sound ([1]; 303.15 K, 101 kPa) [m/s]	viscosity ([1]; 303.15 K, 101 kPa) [mPa·s]	surface tension liquid-gas ([1]; 313.15 K) [mN/m]	mass density ([1]; 313.15 K, 101 kPa) [kg/m3]	speed of sound ([1]; 313.15 K, 101 kPa) [m/s]	viscosity ([1]; 313.15 K, 101 kPa) [mPa·s]	surface tension liquid-gas ([1]; 323.15 K)	mass density ([1]; 323.15 K, 101 kPa) [kg/m3]	speed of sound ([1]; 323.15 K, 101 kPa) [m/s]	viscosity ([1]; 323.15 K, 101 kPa) [mPa·s]	refractive index ([2]; 303.15 K)	refractive index ([2]; 313.15 K)	refractive index ([2]; 323.15 K)	surface tension liquid-gas ([3]; 303.15 K) [mN/m]	mass density ([3]; 303.15 K) [kg/m3]	speed of sound ([3]; 303.15 K) [m/s]	viscosity ([3]; 303.15 K) [mPa·s]	surface tension liquid-gas ([3]; 313.15 K) [mN/m]	also measured
CC(=O)CC(C)(C)O [4-hydroxy-4-methylpentan-2-one]	29.44 ± 0.85	936 ± 7.8	1256 ± 6	2.89 ± 0.13	28.92 ± 0.84	912 ± 8.3	1183 ± 5	2.791 ± 0.13	28.12 ± 0.82 mN/m and 27.12 ± 0.8 mN/m	901 ± 8.9	1121 ± 5	2.67 ± 0.12	1.4239 ± 0.005	1.4198 ± 0.005	1.4151 ± 0.005						mass density ([1]; 293.15 K, 101 kPa): 938 ± 7 kg/m3; viscosity ([1]; 293.15 K, 101 kPa): 2.89 ± 0.13 mPa·s
CCc1ccccc1 [ethylbenzene]	30.01 ± 0.86	867 ± 3.9	1335 ± 6	0.577 ± 0.047	29.04 ± 0.83	842 ± 3.9	1289 ± 6	0.5914 ± 0.048	28.12 ± 0.81 mN/m	832.1 ± 4.1	1204 ± 5	0.4841 ± 0.041	1.4985 ± 0.0026	1.4901 ± 0.0026	1.4821 ± 0.0026						
CCc1ccccc1 [ethylbenzene] + CC(=O)CC(C)(C)O																30.01 ± 0.86	867 ± 3.9	1335 ± 6	0.577 ± 0.047	29.04 ± 0.83	mass density ([3]; 313.15 K): 842 ± 3.9 kg/m3; speed of sound ([3]; 313.15 K): 1289 ± 6 m/s; viscosity ([3]; 313.15 K): 0.5914 ± 0.048 mPa·s; surface tension liquid-gas ([3]; 323.15 K): 28.12 ± 0.81 mN/m; mass density ([3]; 323.15 K): 832.1 ± 4.1 kg/m3; speed of sound ([3]; 323.15 K): 1204 ± 5 m/s; viscosity ([3]; 323.15 K): 0.4841 ± 0.041 mPa·s; refractive index ([4]; 303.15 K): 1.4985 ± 0.0026; refractive index ([4]; 313.15 K): 1.4901 ± 0.0026; refractive index ([4]; 323.15 K): 1.4821 ± 0.0026
O=[N+]([O-])c1ccccc1 [nitrobenzene]	40.9 ± 1.1	1200 ± 10	1413 ± 6	1.617 ± 0.076	38.24 ± 1.1	1196 ± 11	1318 ± 6	1.465 ± 0.069	36.47 ± 1 mN/m	1185 ± 12	1221 ± 5	1.343 ± 0.064	1.5504 ± 0.005	1.5476 ± 0.005	1.5435 ± 0.005						
O=[N+]([O-])c1ccccc1 [nitrobenzene] + CC(=O)CC(C)(C)O																40.9 ± 1.1	1200 ± 10	1413 ± 6	1.617 ± 0.076	38.24 ± 1.1	mass density ([3]; 313.15 K): 1196 ± 11 kg/m3; speed of sound ([3]; 313.15 K): 1318 ± 6 m/s; viscosity ([3]; 313.15 K): 1.465 ± 0.069 mPa·s; surface tension liquid-gas ([3]; 323.15 K): 36.47 ± 1 mN/m; mass density ([3]; 323.15 K): 1185 ± 12 kg/m3; speed of sound ([3]; 323.15 K): 1221 ± 5 m/s; viscosity ([3]; 323.15 K): 1.343 ± 0.064 mPa·s; refractive index ([4]; 303.15 K): 1.5504 ± 0.005; refractive index ([4]; 313.15 K): 1.5476 ± 0.005; refractive index ([4]; 323.15 K): 1.5435 ± 0.005
Cc1ccccc1 [toluene]																					viscosity ([1]; 298.15 K, 101.33 kPa, Capillary tube (Ostwald / Ubbelohde) method): 0.555 ± 0.0042 mPa·s; mass density ([1]; 298.15 K, 101.33 kPa, Pycnometric method): 862.4 ± 1 kg/m3
